Measurements from patent US20200230207A1, “TREATMENT OF BONE GROWTH DISORDERS” (FONDAZIONE TELETHON, priority 2015, published 2020).

Legend:
young rats = details: cited from earlier work
[1] = test system: kidney transplanted children; details: small series of kidney transplanted children; cited from earlier work
[2] = test system: MPS VII primary chondrocytes; test: mTORC1 signaling and autophagy flux in MPS VII primary chondrocytes treated with Torin1; type: cell-based, mouse; details: 1 μM, 24 hours
Protocol: FIG. 28: Pharmacological inhibition of mTORC1 restores autophagy flux in MPS VII chondrocytes. α-b, biochemical analysis in primary chondrocytes treated with Torin1 (1 μM) for 24 hours (a) and quantification (b). Data shown in (b) are mean+SE of 3 independent experiments.
Primary chondrocytes were isolated from the rib cage of P5 mice (wild-type and MPS VII) and were plated at the density of 10^5 cells/cm^2. After 3 days in culture cells were splitted in 12 wells chamber, synchronized with AA, treated with Torin1 (1 μM) for 24 hours and harvested for biochemical analysis.

GusbKO RCS cells = test: UVRAG phosphorylation and AV-Lys fusion in GusbKO RCS chondrocytes; type: cell-based, rat; details: 1 μM, 6h
Protocol: FIG. 32: mTORC1 inhibits AV-Lys fusion in MPS via UVRAG. A, immunoprecipitation assay testing the increase of UVRAG phosphorylation in RCS GusbKO relative to RCS WT cells. The increase is blunted in the presence of Torin-1 (1 μM; 6h). B, immunoprecipitation assay testing physical interactions between endogenous UVRAG, Rubicon and Beclin-1 in RCS WT and GusbKO RCS chondrocytes after 6h amino acid treatment. Cell lysates were immunoprecipitated with an UVRAG-specific antibody followed by probing with antibodies specific for P-UVRAG (S498), UVRAG, Rubicon or Beclin-1. C, myc-UVRAG was transiently expressed in Gusb^−/− primary chondrocytes. Myc expression, LC3 and P62 were monitored by fluorescence microscope two days post-transfection and after 24h amino acid treatment. Scale bar, 10 μm. Quantitative analysis of P62 and LC3 puncta. Mean value is shown as a horizontal bar. (Student's t-test, *** p<0.0005, n≥20). […] Blot is representative of 3 independent experiments. E, quantification of protein amount normalized to β-actin and relative to RCS WT (ANOVA, P62 P<0.0001, Tukey's post-hoc test, ***p<0.0005, **p<0.005, *p<0.05). […] Scale bar, 10 μm. Quantification of Lamp-1-LC3 co-localization is shown as mean (±s.e.m.) of Mander's Coefficients resulting from three independent experiments (Student's t-test, *p<0.05).

Structure (SMILES): CO[C@H]1C[C@@H]2CC[C@@H](C)[C@@](O)(O2)C(=O)C(=O)N2CCCC[C@H]2C(=O)O[C@H]([C@H](C)C[C@@H]2CC[C@@H](O)[C@H](OC)C2)CC(=O)[C@H](C)/C=C(\C)[C@@H](O)[C@@H](OC)C(=O)[C@H](C)C[C@H](C)/C=C/C=C/C=C/1C [rapamycin]
- longitudinal growth (young rats; rats): impairs longitudinal growth
- angiogenesis, proliferation and hypertrophy of growth cartilage chondrocytes (young rats; young rats): disrupts angiogenesis and decreases proliferation and hypertrophy of growth cartilage chondrocytes
- growth rate compared with control group not treated [1]: lower growth rate

Structure (SMILES): CCC(=O)N1CCN(c2ccc(-n3c(=O)ccc4cnc5ccc(-c6cnc7ccccc7c6)cc5c43)cc2C(F)(F)F)CC1 [Torin1]
- LC3 II and p62 levels [2]: normalization
- autophagy defects [2]: rescues
- phosphorylation of mTORC1 substrates [2]: completely suppresses
- UVRAG serine 497 (S497) phosphorylation (GusbKO RCS cells): blunted
